Columns and labels:
[1] = Clearance in Sprague-Dawley rat at 1 mg/kg, iv; type: ADME, organism-based; settings: in vivo
[2] = molecular target: T1, Nuclear receptor subfamily 1 group I member 2 (Homo sapiens, UniProt O75469); assay: Transactivation of PXR (unknown origin) relative to refampicin; type: ADME
T1 sequence (O75469 whole entry): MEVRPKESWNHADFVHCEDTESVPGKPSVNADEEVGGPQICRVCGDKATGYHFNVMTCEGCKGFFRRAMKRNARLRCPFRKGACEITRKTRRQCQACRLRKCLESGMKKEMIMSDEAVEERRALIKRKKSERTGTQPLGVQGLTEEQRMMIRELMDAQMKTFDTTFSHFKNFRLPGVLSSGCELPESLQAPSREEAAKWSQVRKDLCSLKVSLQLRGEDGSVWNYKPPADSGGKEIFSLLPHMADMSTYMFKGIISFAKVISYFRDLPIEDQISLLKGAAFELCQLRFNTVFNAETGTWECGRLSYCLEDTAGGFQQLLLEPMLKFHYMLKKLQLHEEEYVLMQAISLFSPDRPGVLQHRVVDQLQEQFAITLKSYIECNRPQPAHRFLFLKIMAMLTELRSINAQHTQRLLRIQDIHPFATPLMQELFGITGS

Cytochrome P450 2C19 = Cytochrome P450 2C19 (Homo sapiens, UniProt P33261); assay: Inhibition of recombinant CYP2C19 (unknown origin) using fluorogenic substrate preincubated for 15 min followed by NADPH addition measured after 2 hrs by fluorescence method; type: ADME
[3] = molecular target: T2, UDP-glucuronosyltransferase 1A1 (Homo sapiens, UniProt P22309); assay: Inhibition of human UGT1A1
T2 sequence (P22309 whole entry): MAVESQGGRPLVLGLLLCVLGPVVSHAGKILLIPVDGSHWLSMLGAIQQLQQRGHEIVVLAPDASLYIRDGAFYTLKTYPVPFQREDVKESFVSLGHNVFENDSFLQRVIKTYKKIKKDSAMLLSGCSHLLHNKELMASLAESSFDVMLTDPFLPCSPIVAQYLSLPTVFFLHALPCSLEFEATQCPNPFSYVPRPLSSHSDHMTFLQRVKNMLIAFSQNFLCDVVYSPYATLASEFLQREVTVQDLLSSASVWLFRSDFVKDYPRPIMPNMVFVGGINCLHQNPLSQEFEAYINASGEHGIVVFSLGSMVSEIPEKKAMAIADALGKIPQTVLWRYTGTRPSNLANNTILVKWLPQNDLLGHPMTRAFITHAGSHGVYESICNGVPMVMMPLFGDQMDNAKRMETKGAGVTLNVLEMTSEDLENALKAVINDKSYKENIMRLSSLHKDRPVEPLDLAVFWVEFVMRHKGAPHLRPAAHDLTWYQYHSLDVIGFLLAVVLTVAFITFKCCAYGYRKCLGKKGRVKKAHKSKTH

[4] = Volume of distribution at steady state in C57BL6 mouse at 1 mg/kg, iv; type: ADME, organism-based; settings: in vivo, read-out: Vdss
[5] = Metabolic stability in rat liver microsome assessed as parent compound remaining at […] measured after 10 mins; type: ADME; settings: liver microsomes, read-out: Stability
[6] = Half life in C57BL6 mouse at 1 mg/kg, iv; type: ADME, organism-based; settings: in vivo
[7] = AUC (total) in C57BL6 mouse at 5 mg/kg, po; type: ADME, organism-based; parameters: dose 5 mg/kg, route po; settings: in vivo
[8] = Half life in Sprague-Dawley rat at 1 mg/kg, iv; type: ADME, organism-based; settings: in vivo
[9] = Volume of distribution at steady state in Sprague-Dawley rat at 1 mg/kg, iv; type: ADME, organism-based; settings: in vivo, read-out: Vdss
[10] = AUC (total) in C57BL6 mouse at 1 mg/kg, iv; type: ADME, organism-based; parameters: dose 1 mg/kg, route iv; settings: in vivo
[11] = AUC (total) in Sprague-Dawley rat at 1 mg/kg, iv; type: ADME, organism-based; parameters: dose 1 mg/kg, route iv; settings: in vivo
[12] = molecular target: T3, Solute carrier organic anion transporter family member 1B3 (Homo sapiens, UniProt Q9NPD5); assay: Inhibition of OATP1B3 (unknown origin)
T3 sequence (Q9NPD5 whole entry): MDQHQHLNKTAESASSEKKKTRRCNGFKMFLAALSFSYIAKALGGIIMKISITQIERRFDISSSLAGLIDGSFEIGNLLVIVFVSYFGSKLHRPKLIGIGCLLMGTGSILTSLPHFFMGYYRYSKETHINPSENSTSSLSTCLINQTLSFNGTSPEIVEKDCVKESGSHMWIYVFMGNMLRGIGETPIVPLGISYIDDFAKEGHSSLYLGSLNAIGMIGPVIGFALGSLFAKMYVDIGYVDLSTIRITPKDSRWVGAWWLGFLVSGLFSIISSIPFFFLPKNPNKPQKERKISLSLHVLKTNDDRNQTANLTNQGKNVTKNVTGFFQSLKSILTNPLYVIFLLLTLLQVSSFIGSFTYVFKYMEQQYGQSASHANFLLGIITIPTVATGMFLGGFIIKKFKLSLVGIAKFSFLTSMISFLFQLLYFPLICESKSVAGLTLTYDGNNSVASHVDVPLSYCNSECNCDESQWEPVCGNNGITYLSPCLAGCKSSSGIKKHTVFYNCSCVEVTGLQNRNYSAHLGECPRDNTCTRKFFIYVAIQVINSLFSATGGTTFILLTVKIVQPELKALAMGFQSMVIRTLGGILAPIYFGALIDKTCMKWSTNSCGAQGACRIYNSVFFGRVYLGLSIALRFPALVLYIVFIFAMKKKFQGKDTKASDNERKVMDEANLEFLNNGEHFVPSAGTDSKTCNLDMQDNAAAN

Mus musculus = assay: Antifibrotic activity against bile duct ligation-induced liver cholestasis C57BL/6NTac mouse model assessed as reduction in collagen level administered orally as single dose for 9 days and measured after 24 hrs post-last dose by picrosirius red staining method; type: functional, organism-based; settings: dose 0.3-10 mg/kg, route po, time 9.0 day, DDE = dose-dependent effect
[13] = molecular target: T1, Nuclear receptor subfamily 1 group I member 2; assay: Transactivation of PXR (unknown origin); type: ADME
Cytochrome P450 2C8 = molecular target: T4, Cytochrome P450 2C8 (Homo sapiens, UniProt P10632); assay: Inhibition of CYP2C8 in human liver microsomes using fluorogenic substrate preincubated for 15 min followed by NADPH addition measured after 2 hrs by fluorescence based assay; type: ADME, Microsome
T4 sequence (P10632 whole entry): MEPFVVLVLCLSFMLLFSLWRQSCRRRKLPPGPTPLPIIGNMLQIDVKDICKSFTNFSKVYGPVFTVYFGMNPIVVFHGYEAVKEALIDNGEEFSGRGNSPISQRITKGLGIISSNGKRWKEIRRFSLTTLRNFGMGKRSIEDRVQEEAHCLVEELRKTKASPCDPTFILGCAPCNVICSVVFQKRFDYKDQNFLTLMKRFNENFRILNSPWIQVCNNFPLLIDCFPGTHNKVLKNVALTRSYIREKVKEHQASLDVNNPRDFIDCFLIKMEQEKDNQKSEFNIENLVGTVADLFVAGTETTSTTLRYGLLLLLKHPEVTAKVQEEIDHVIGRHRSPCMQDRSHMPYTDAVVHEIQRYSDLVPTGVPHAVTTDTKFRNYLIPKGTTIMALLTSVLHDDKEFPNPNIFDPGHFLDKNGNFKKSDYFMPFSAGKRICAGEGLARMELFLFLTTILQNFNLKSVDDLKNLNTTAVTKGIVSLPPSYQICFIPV

Cytochrome P450 2C19, sequence (P33261 whole entry): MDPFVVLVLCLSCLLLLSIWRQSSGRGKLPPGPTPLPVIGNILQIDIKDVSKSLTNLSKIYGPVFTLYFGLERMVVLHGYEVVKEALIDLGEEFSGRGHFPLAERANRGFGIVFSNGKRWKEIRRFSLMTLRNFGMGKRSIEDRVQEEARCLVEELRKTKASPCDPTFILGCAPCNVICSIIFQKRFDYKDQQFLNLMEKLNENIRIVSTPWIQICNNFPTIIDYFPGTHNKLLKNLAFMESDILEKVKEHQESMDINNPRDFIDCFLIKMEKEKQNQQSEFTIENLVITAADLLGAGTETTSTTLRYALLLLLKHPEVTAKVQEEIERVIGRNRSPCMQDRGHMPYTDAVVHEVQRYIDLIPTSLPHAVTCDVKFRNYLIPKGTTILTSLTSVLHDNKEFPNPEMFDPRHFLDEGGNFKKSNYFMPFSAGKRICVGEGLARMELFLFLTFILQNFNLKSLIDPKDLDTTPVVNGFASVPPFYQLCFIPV

clearance [1]: 4 mL/min/kg | Emax [2]: 11% | IC50 (Cytochrome P450 2C19): 7 µM | IC50 [3]: 1.5 µM | Vd [4]: 2.2 L/kg | remaining at 10 min [5]: 93% | half-life [6]: 16 h | AUC [7]: 56.6 µM·h | half-life [8]: 18 h | Vd [9]: 5.2 L/kg | AUC [10]: 16.4 µM·h | AUC [11]: 6.6 µM·h | IC50 [12]: 13.5 µM | EC50 [13]: 50 µM | IC50 (Cytochrome P450 2C8): > 20 µM
SMILES: CC(C)(O)c1ccc(-c2cccc(N(CC34CCC(c5noc(C(C)(C)F)n5)(CC3)CC4)C(=O)[C@H]3C[C@](O)(C(F)(F)F)C3)c2)cc1
Activity (Mus musculus): Dde

Source: ChEMBL document CHEMBL5143714, “Discovery of BMS-986339, a Pharmacologically Differentiated Farnesoid X Receptor Agonist for the Treatment of Nonalcoholic Steatohepatitis” (J Med Chem, 2022)
